For assay [1], the system named is PD-L1 aAPC/CHO-K1 cells and Jurkat-PD-1-NFAT effector cells. The assay is described as follows: Nuclear factor of activated T-cells (NFAT) assay. In kind it is cell-based. As for the experimental part:
The culture media of PD-L1 aAPC/CHO-K1 cells were first replaced with assay medium (RPMI1640 medium with 1% FBS). […] The assay plate was incubated at 37° C., 5% CO2 for 24 hours. […] After 8 minutes incubation at room temperature, luminescence was read at with Pherastar microplate reader (BMG Labtech). The fold of induction (FOI) was calculated based on the ratio of luminescence normalized to the DMSO wells within each assay plate. The maximum percentage of induction was reported based on the ratio between the highest FOI of each compound and the maximum FOI of control compound within each assay plate. Wells with DMSO were served as the negative controls and wells containing control compound with the highest FOI were used as positive controls. EC50 determination was performed by fitting the curve of percent control activity versus the log of the compound concentration using the GraphPad Prism 6.0 software.

The subject of assay [2] is U2OS/PD-L1 cells and Jurkat-PD-1-SHP cells. The assay is described as follows: Src homology region 2 domain-containing phosphatase (SHP) assay. In kind it is cell-based. The following applies: Homo sapiens. As for the experimental part:
Example B. Src Homology Region 2 Domain-Containing Phosphatase (SHP) Assay
U2OS/PD-L1 cells (DiscoveRx Corporation) were maintained in McCoy's 5A medium with addition of 10% FBS, 0.25 μg/ml Puromycin. After removing the culture media, the cell medium was replaced with assay medium (RPMI1640 medium with 1% FBS). The U2OS/PD-L1 cells were then added in 384-well black clear bottom assay plate (CELLCOAT® Tissue Culture Plates, Greiner Bio-One) at 5000 cells per well in 20 μL assay medium. Test compounds were prepared by serial dilution in DMSO and 125 nL compound were first transferred to the 384 REMP plate well (Thermofisher) by ECHO liquid handler (Labcyte) followed with addition of 27.5 μL assay medium. 5 μL/well compounds in the assay medium were transferred to the cell plate with 0.05% DMSO in the final assay at 0.25 Jurkat-PD-1-SHP cells (DiscoveRx Corporation) were cultured in RPMI1640 medium supplemented with 10% FBS, 250 μg/ml Hygromycin B, 500 μg/ml G418. After the replacement of culture media with assay medium, 5,000 Jurkat-PD-1-SHP cells in 20 μL were dispensed into each well. The assay plate was incubated at 37° C., 5% CO2 for 2 hours before 2.5 μL PathHunter reagent 1 (DiscoveRx Corporation) were added to each well. […] Chemiluminescent signal was recorded with TopCount reader (Perkin Elmer) after incubation at room temperature for 1 hour. […]

SMILES strings stand for the structures.

For two compounds, EC50 and IC50 results are on record in patent US10906920B2, “Heterocyclic compounds as immunomodulators” (Incyte Corporation, priority 2018, dated 2021).

A word on the EC50: it is the midpoint of the concentration-response curve. A higher EC50 goes with weaker potency. `Cn1c(C(=O)Nc2cccc(-c3cccc(NC(=O)c4nc5c(n4C)CCN(CC(C)(C)C(=O)O)C5)c3Cl)c2Cl)nc2c1CCN(CCC13CCC(C(=O)O)(CC1)C3)C2` [Example 21, 4-(2-(2-((3′-(5-(2-carboxy-2-methylpropyl)-1-methyl-4,5,6,7-tetrahydro-1H-imidazo[4,5-c]pyridine-2-carboxamido)-2,2′-dichloro-[1,1′-biphenyl]-3-yl)carbamoyl)-1-methyl-1,4,6,7-tetrahydro-5H-imidazo[4,5-c]pyridin-5-yl)ethyl)bicyclo[2.2.1]heptane-1-carboxylic acid]: the EC50 in assay [1] is 10 to 100 nM. Usually IC50 stands for the concentration at which inhibition is half-maximal. A high value points to weaker potency. In the case of `Cn1c(C(=O)Nc2cccc(-c3cccc(NC(=O)c4nc5c(n4C)CCN(CCC46CCC(C(=O)O)(CC4)C6)C5)c3Cl)c2Cl)nc2c1CCN(CCCCC(=O)O)C2` [Example 63, 4-(2-(2-((3′-(5-(4-carboxybutyl)-1-methyl-4,5,6,7-tetrahydro-1H-imidazo[4,5-c]pyridine-2-carboxamido)-2,2′-dichloro-[1,1′-biphenyl]-3-yl)carbamoyl)-1-methyl-1,4,6,7-tetrahydro-5H-imidazo[4,5-c]pyridin-5-yl)ethyl)bicyclo[2.2.1]heptane-1-carboxylic acid], the IC50 in assay [2] was no more than 10 nM.
